Assay results: patent US10757937B2, “Sulfonamides that activate ABA receptors” (The Regents of the University of California, priority 2014, dated 2020)

Columns and labels:
Assay in all cases: receptor-mediated PP2C (HAB1) inhibition in vitro assay
Format in all cases: biochemical
PYL10 = target: T1, PYL10 (Arabidopsis thaliana, UniProt Q8H1R0); details: for remaining activity at 50 µM: 50 uM of the test compound; for IC50: Table XII-B, calculated from dose curves, read-out: PP2C Activity (IC50 in uM) PYL10
T1 construct: 6X-His; made in house; host or cells: E. coli BL21[DE3]pLysS
T1 sequence (Q8H1R0 1-183): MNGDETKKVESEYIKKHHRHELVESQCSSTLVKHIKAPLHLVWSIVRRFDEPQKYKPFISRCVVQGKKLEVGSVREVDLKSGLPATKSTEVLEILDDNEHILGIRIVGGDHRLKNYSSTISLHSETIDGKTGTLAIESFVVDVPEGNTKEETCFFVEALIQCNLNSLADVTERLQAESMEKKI
T1 sequence (Q9CAJ0 23-511 partner): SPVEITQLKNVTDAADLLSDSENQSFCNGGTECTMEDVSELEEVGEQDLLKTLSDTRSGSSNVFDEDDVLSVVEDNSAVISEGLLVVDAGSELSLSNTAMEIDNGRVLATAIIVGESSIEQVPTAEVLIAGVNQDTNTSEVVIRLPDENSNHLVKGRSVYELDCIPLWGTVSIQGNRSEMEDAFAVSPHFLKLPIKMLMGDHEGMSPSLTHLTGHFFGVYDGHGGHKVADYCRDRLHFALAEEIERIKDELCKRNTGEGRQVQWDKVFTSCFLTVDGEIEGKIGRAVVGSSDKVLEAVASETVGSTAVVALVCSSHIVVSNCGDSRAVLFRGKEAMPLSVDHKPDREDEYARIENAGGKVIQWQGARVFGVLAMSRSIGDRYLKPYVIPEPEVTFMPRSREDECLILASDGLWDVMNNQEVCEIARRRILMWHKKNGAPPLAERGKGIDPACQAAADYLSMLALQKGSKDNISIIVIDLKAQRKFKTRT
Method in brief: (§1)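 Fluorogenic readout: 4-methylumbelliferyl-phosphate hydrolysis by 50 nM GST-HAB1 plus 2:1 His-receptor; Tris-OAc pH 7.9, NaCl, 1 mM MnCl2, β-ME. Compounds at 25 μM or 50 uM single dose; IC50 from dose curves for selected compounds.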

PYL11 = target: T2, PYL11 (Arabidopsis thaliana, UniProt Q9FJ50); details: for remaining activity at 50 µM: 50 uM of the test compound; for IC50: Table XII-B, calculated from dose curves, read-out: PP2C Activity (IC50 in uM) PYL11
T2 construct: made in house; host or cells: E. coli BL21[DE3]pLysS
T2 sequence (Q9FJ50 1-161): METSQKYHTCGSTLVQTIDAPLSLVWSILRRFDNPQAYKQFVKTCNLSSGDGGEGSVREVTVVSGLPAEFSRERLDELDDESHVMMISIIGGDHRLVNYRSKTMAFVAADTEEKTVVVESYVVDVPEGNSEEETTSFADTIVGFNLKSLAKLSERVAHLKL
T2 sequence (Q9CAJ0 23-511 partner): T1 sequence (Q9CAJ0 23-511 partner)
Method in brief: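 His-tagged receptors (MBP fusion for PYL11) at 2:1 ratio to 50 nM GST-HAB1 in 100 mM Tris-OAc pH 7.9, 100 mM NaCl, 1 mM MnCl2; 4-methylumbelliferyl-phosphate fluorogenic substrate. Compounds at 50 uM (ABA 10 uM); IC50 from dose curves for selected compounds.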

PYL2 = target: T3, PYL2 (Arabidopsis thaliana, UniProt O80992); details: for remaining activity at 50 µM: 50 uM of the test compound; for IC50: Table XII-B, calculated from dose curves, read-out: PP2C Activity (IC50 in uM) PYL2
T3 construct: 6X-His; made in house; host or cells: E. coli BL21[DE3]pLysS
T3 sequence (O80992 1-190): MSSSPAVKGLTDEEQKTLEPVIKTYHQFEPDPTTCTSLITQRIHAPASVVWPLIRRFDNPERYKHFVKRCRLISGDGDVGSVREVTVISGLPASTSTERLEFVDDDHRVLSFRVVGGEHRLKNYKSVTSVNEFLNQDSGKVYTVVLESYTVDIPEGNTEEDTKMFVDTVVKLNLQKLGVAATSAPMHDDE
T3 sequence (Q9CAJ0 23-511 partner): T1 sequence (Q9CAJ0 23-511 partner)
Method in brief: as §1

PYL4 = target: T4, PYL4 (Arabidopsis thaliana, UniProt O80920); details: for remaining activity at 50 µM: 50 uM of the test compound; for IC50: Table XII-B, calculated from dose curves, read-out: PP2C Activity (IC50 in uM) PYL4
T4 construct: 6X-His; made in house; host or cells: E. coli BL21[DE3]pLysS
T4 sequence (O80920 1-207): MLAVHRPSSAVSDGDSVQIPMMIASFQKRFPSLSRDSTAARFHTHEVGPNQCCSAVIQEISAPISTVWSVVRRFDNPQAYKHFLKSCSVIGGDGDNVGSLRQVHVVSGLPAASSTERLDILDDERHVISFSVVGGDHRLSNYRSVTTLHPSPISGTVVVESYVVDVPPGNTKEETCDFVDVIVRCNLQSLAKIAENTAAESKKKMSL
T4 sequence (Q9CAJ0 23-511 partner): T1 sequence (Q9CAJ0 23-511 partner)
Method in brief: as §1

PYL9 = target: T5, PYL9 (Arabidopsis thaliana, UniProt Q84MC7); details: for remaining activity at 50 µM: 50 uM of the test compound; for IC50: Table XII-B, calculated from dose curves, read-out: PP2C Activity (IC50 in uM) PYL9
T5 construct: 6X-His; made in house; host or cells: E. coli BL21[DE3]pLysS
T5 sequence (Q84MC7 1-187): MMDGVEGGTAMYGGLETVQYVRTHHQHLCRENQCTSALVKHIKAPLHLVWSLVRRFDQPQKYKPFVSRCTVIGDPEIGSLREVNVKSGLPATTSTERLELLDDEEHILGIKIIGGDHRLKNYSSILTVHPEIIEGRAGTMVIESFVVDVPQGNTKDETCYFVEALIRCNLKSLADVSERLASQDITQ
T5 sequence (Q9CAJ0 23-511 partner): T1 sequence (Q9CAJ0 23-511 partner)
Method in brief: as §1

PYR1 = target: T6, PYR1 (Arabidopsis thaliana, UniProt O49686); details: for remaining activity at 50 µM: 50 uM of the test compound; for IC50: Table XII-B, calculated from dose curves, read-out: PP2C Activity (IC50 in uM) PYR1
T6 construct: 6X-His; made in house; host or cells: E. coli BL21[DE3]pLysS
T6 sequence (O49686 1-191): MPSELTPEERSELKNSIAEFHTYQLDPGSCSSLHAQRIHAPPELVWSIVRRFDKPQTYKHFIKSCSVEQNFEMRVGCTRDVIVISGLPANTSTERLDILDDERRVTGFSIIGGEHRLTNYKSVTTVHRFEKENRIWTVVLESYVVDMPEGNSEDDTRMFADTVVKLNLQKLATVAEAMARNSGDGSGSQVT
T6 sequence (Q9CAJ0 23-511 partner): T1 sequence (Q9CAJ0 23-511 partner)
Method in brief: as §1

Compound | remaining activity at 50 µM (PYL10) | IC50 (PYL10) | remaining activity at 50 µM (PYL11) | IC50 (PYL11) | remaining activity at 50 µM (PYL2) | IC50 (PYL2) | remaining activity at 50 µM (PYL4) | IC50 (PYL4) | remaining activity at 50 µM (PYL9) | IC50 (PYL9) | remaining activity at 50 µM (PYR1) | IC50 (PYR1)
N#Cc1ccc(CS(=O)(=O)NC(=O)C2(c3cccs3)CCCCC2)cc1 [Compound 75, N-[(4-Cyanophenyl)methanesulfonyl]-1-(thiophen-2-yl)cyclohexane-1-carboxamide] | 27% | 0.38 µM | 9.8% | 0.39 µM | 89.5% | > 50 µM | 98% | > 50 µM | 6.9% | 0.083 µM | 96.1% | > 50 µM
N#Cc1ccc(CS(=O)(=O)NC(=O)C2(c3ccsc3)CCCCC2)cc1 [Compound 78, N-[(4-Cyanophenyl)methanesulfonyl]-1-(thiophen-3-yl)cyclohexane-1-carboxamide] | 25.6% | 0.25 µM | 9.9% | 0.19 µM | 81.2% | > 50 µM | 102% | > 50 µM | 6.1% | 0.038 µM | 90.9% | > 50 µM
N#Cc1ccc(CS(=O)(=O)NC(=O)C2(c3ccsc3)CCCCC2)cc1Br [Compound 106, N-[(4-Cyano-3-bromophenyl)methanesulfonyl]-1-(thiophen-3-yl)cyclohexane-1-carboxamide] | 22.5% | 0.022 µM | 7.8% | 0.065 µM | 29.6% | 33 µM | 89.2% | > 50 µM | 5.4% | 0.014 µM | 98.9% | > 50 µM
